Consider one compound from US12486303B2, “Use of peptide for inhibiting functions and expressions of multiple disease biomarkers” (NIBEC CO., LTD., priority 2018, dated 2025).

For one assay, the target named is T1, HDAC5 protein (Homo sapiens, UniProt Q9UQL6).
T1 construct: purchased Abcam
Briefly: Biacore T200 binding affinity to immobilised HDAC5 protein. The settings on record: CM5 chip, 1:1 binding model. (In general: In SPR one partner is held on a chip, and binding of the other changes the refractive index at the surface.)

Assay [1] has as its system collagen-induced arthritis (CIA) rats. Briefly: Collagen-induced arthritis animal model. It counts as in vivo, Wistar rats. The settings on record: for Hind paw swelling inhibition (%): 38th day. An excerpt:
In order to determine whether or not the peptide according to the present invention is effective in treating rheumatoid arthritis in vivo, the effect of treating arthritis thereof was detected in a collagen-induced arthritis animal model. For this purpose, female Wistar rats (105-135 g, n=67) were purchased from Harlan Co. Ltd. (Indianapolis, IN, USA). All rats were bred in a pathogen-free environment and sterilized standard rat feed (Harlan Co. Ltd, USA) and water were freely fed to the rats. Animal experiments were conducted with the approval of the Institutional Animal Care and Use Committee (IACUC) of Seoul National University. Collagen-induced arthritis was induced in a known manner (Nishikawa et al., Arthritis and rheumatism. 2003; 48:2670-81).
Specifically, 500 μg of bovine collagen type II was injected along with a mixture of 0.5 mL of 0.1 M acetic acid and 0.5 mL of Freund's incomplete adjuvant into rat muscle. On the 7th day, 0.5 mL of 0.1 M acetic acid and 0.5 mL of Freund's incomplete adjuvant were further inoculated along with 250 μg of bovine collagen type II to produce collagen-induced arthritis (CIA) rats. The rats were classified into a CIA-induced group (n=10), a CIA-induced group injected with a low concentration of the peptide of SEQ ID NO: 1 (LD AIP, 15 mg/kg, n=10), a CIA-induced group injected with a high concentration of the peptide of SEQ ID NO: 1 (HD AIP, 30 mg/kg, n=10), a CIA-induced group injected with etanercept (Enbrel) (10 mg/kg, n=10), and a normal group (n=6). From 28 days after the first collagen injection, the peptide of SEQ ID NO: 1 was injected subcutaneously into the back of the neck twice a week over 4 weeks. Etanercept was injected intraperitoneally three times a week over 4 weeks. Swelling of both hind paws was measured twice using a plethysmometer (LE7500 N, IWOO Scientific Corporation, KOREA) on day 22, 29, 31, 35, 38, 42, 45, 49, 52, and 56. The plethysmometer was used after calibration to a weight of 3 mL. The measured area was marked by drawing a line, and measurement was conducted adjacent to the ankle. Hind paw swelling increase (%) and hind paw swelling inhibition (%) were calculated using the following equations.
In order to observe the degree of bone damage in the hind paw, microcomputed tomography (micro-CT) was performed using a SkyScan 1172 (SkyScan, Aartselaar, Belgium). The total volume (TV; mm^3), bone volume (BV; mm^3) and bone volume fraction (BV/TV; %) were analyzed using CTAn software. On the 57th day, rats were sacrificed and subjected to histological analysis. Both hind paws and joints were collected, fixed in 10% buffered formalin, and demineralized in 30% citrate-buffered formic acid at 4° ° C. for 3 days. Paraffin blocks were produced, sliced into sections with a thickness of 4 μm and stained with hematoxylin and eosin (H&E), and then the pathological score was evaluated with an optical microscope. The joint inflammation index was measured based on the following criteria (Shiozawa et al., J Clin Invest. 1997; 99 (6):1210-1216). 0, normal synovium; 1, synovial membrane hypertrophy and cell infiltrates; 2, pannus and cartilage erosion; 3, major erosion of cartilage and subchondral bone; and 4, loss of joint integrity and ankylosis.
The rats were sacrificed and systemic blood was collected, and the concentrations of TNF-α and IL-6 in the blood were measured with an ELISA kit (R&D, Minneapolis, MN, USA).

A further assay deals with NF-κB p105/p50. Kind of assay: Phospho explorer antibody microarray of LPS-treated RAW 264.7 cells: NF-κB p105/p50. It counts as cell-based. To be noted: 200 μM peptide 1 hour then LPS 1 μg/mL 30 minutes, compared to cells treated with only LPS. The procedure:
(§1) RAW 264.7 cells were starved in 0.5% FBS for 2 hours and treated with 200 μM of the peptide of SEQ ID NO: 1 for 1 hour, and then inflammation was induced at 37° C. for 30 minutes with LPS (1 μg/mL). Cell lysates of untreated cells (NT), cells treated with LPS, and cells treated with SEQ ID NO: 1 and LPS were applied to a Phospho explorer antibody microarray from Full Moon Biosystems. The phospho microarray is capable of recognizing 1318 antibodies related to 30 signaling systems. A standard-size coated glass microscope slide was coated with each antibody. =It was scanned with a GenePix 4100A scanner (Axon Instrument, Foster City, CA, USA). Data were analyzed with Genowiz 4.0™ (Ocimum Biosolutions, Hyderabad, India). The phosphorylation ratio was calculated as follows.
(§2) Formula for calculating phosphorylation ratio in each antibody: Phosphorylation ratio=(phosphorylation value of experimental group/non-phosphorylation value of experimental group)/(phosphorylation value of control group/non-phosphorylation value of control group)

For assay [2], the system named is TNBS-induced colitis rats. Kind of assay: TNBS colitis-induced animal model. It counts as in vivo. Here is the method:
In order to determine whether or not the peptide according to the present invention has the effect of treating inflammatory colitis in vivo, the effect of treating colitis in a colitis-induced animal model was detected. Before induction of colitis, rats were allowed to drink water freely, although food was not supplied thereto for 24 hours. The rats were lightly anesthetized with ether. A rubber cannula (o.d., 2 mm) was inserted into the colon, the end of which was about 8 cm away from the anus and was located near the splenic flexure. 2,4,6-trinitro benzene sulfonic acid (TNBS; Sigma Chemical Co, St Louis, Missouri, USA) dissolved in a 50% (v/v) ethanolic aqueous solution was injected into the colon through the rubber cannula (15 mg/0.3 mL/rat). 72 hours after induction of colitis, the peptide of SEQ ID NO: 1 (30 mg/kg) was intraperitoneally injected once a day, and after administration for 7 days, the rats were sacrificed. The weight of the rats was measured at 9 AM every day, and the length of the colon was measured from the cecum to the anus using a vernier caliper (Mitutoyo, Japan) after rat sacrifice.
The extracted large intestine was frozen and stored at −70° ° C., the mucous membrane tissue was collected from the muscle layer of the large intestine, the weight of the mucous membrane tissue was measured, and 10 mg of the mucous membrane tissue was lysed in a triple wash buffer (50 mM Tris-HCl, pH 8.0, 150 mM NaCl, 0.1% sodium deoxycholate and 1 mM phenylmethysulfonyl and homogenized. Then, p40, TNF-α, and IL-12 were assayed using an ELISA kit (R&D, Minneapolis, MN, USA).

The test system of a further assay is HDAC5. Briefly: Phospho explorer antibody microarray of LPS-treated RAW 264.7 cells: HDAC5. In kind it is cell-based. The settings on record: 200 μM peptide 1 hour then LPS 1 μg/mL 30 minutes, compared to cells treated with only LPS. The procedure:
as §1, §2

T1 sequence (Q9UQL6 whole entry, species assumed): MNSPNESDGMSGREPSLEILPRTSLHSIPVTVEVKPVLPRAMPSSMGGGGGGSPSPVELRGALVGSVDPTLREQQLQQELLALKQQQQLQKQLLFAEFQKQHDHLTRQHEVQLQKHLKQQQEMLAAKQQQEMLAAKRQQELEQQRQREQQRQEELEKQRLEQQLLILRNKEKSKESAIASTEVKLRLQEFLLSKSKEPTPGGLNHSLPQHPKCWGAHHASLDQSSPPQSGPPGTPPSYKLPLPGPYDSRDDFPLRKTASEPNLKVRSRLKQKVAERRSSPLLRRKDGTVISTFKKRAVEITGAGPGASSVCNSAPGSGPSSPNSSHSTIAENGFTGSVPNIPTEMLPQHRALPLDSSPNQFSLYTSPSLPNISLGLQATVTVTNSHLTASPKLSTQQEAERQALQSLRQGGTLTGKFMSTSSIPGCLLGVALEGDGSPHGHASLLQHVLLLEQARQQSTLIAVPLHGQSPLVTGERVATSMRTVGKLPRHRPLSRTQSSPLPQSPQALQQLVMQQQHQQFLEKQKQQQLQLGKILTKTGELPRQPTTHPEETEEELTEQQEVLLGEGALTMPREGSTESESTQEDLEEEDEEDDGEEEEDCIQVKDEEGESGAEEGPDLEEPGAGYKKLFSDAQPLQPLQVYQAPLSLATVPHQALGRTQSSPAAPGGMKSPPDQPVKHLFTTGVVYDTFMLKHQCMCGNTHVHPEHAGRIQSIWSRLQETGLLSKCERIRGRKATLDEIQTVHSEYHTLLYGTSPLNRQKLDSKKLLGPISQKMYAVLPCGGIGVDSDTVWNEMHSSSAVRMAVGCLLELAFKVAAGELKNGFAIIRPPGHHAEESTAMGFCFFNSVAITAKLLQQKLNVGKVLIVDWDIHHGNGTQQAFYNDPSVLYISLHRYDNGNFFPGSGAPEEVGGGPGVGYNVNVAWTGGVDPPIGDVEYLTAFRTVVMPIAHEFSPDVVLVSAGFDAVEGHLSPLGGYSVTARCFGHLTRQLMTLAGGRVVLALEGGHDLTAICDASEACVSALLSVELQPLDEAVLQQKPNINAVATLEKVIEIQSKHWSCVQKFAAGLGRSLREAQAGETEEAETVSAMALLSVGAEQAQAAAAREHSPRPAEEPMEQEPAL
Experimental for HDAC5 protein: For this purpose, HDAC5 protein (Abcam, MA, USA) was dissolved in sodium acetate buffer (pH 4.5), and was bound to a dextran-covered sensor chip surface (CM5 chip) using N-hydroxysuccinimide (NHS) and N-ethyl-N0-(3-dimethylaminopropyl)-carbodiimide hydrochloride (EDAC) as crosslinkers. The unreacted active group of dextran was blocked by the addition of ethanolamine (1M) thereto. The number of HDAC5 binding to the chip was measured as 4440RU (1000 RU=1 ng/mm^2). […] Rate constants for association (ka) and dissociation (kd), and a dissociation constant (KD) were calculated using BIAevaluation software and a 1:1 binding model.

Take `C[C@@H](O)[C@H](NC(=O)[C@H](CO)NC(=O)[C@H](CS)NC(=O)[C@H](CCCCN)NC(=O)CN)C(=O)N[C@@H](CCCNC(=N)N)C(=O)NCC(=O)N[C@@H](CCCNC(=N)N)C(=O)N[C@@H](CCCCN)C(=O)N[C@@H](CS)C(=O)N[C@@H](CS)C(=O)N[C@@H](CCCNC(=N)N)C(=O)N[C@@H](CCCNC(=N)N)C(=O)N[C@@H](CCCCN)C(=O)N[C@@H](CCCCN)C(=O)O` [SEQ ID NO: 1]: the kd at HDAC5 protein came to 0.07264 s⁻¹. Moreover, the kon at HDAC5 protein (read-out: ka) was 108000 M⁻¹ s⁻¹. The “Concentration of IL-6 in blood” value in assay [1] (ELISA, high concentration of peptide or etanercept, CIA-induced group 109 pg/ml) was 35.2 pg/mL. For the same compound, in assay [1] (ELISA, high concentration of peptide or etanercept, CIA-induced group 128 pg/ml), the “Concentration of TNF-α in blood” value is reported as 40.3 pg/mL. In addition, the “Bone damage in hind paw (micro-CT)” value in assay [1] (FIG. 3A) was “bone tissue was preserved”. In addition, the “Microscopic observation of joint tissues (inflammation, H&E)” value in assay [1] (FIG. 4A) is reported as “decrease in inflammation in a concentration-dependent manner”. Also, the “Hind paw swelling inhibition (%)” value in assay [1] (high concentration (30 mg/kg)) is 35%. In assay [1] (high concentration, micro-CT), the “Bone surface area adjusted to BV (BS/BV)” value is on record as “low”, the “Bone volume (BV)” value is given as “high”, the “Bone volume/tissue volume (BV/TV)” value is “high” and the “Trabecular thickness (Tb.Th)” value is “high”. In assay [1] (low concentration (15 mg/kg)), the “Hind paw swelling inhibition (%)” value is given as 32%. The “Hind paw swelling (%)” value in assay [1] (peptide 15 or 30 mg/kg subcutaneously twice a week, etanercept 10 mg/kg intraperitoneally three times a week, 4 weeks) is “decrease in hind paw swelling (%) in a concentration-dependent manner”. Further, in assay [1] (peptide at high concentration (30 mg/kg)), the “Hind paw swelling (%)” value is “decrease in hind paw swelling (%) between 38 and 49 days (P<0.05)”. Also, in assay [1] (score 0-4, CIA-induced group 3.3±0.67), the Inflammation index turned out to be 1.5±1.17. In the assay on NF-κB p105/p50, the “Phosphorylation ratio of NF-κB p105/p50” value is 0.485. In assay [2] (30 mg/kg intraperitoneally), the “Expression of IL-12 in large intestine mucous membrane tissue (ELISA)” value is recorded as “decreased”, the “Expression of TNF-α in large intestine mucous membrane tissue (ELISA)” value is on record as “decreased” and the “Expression of p40 in large intestine mucous membrane tissue (ELISA)” value was “decreased”. In assay [2] (30 mg/kg intraperitoneally once a day, 7 days, 8th day), the “Visual observation of large intestine” value is listed as “appeared similar to the normal group (CON), indicating that colitis was remarkably suppressed”. For the same compound, the “Phosphorylation ratio of HDAC5” value with HDAC5 was determined as 0.278.
